In PubChem BioAssay (NCI):
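Where inhibition never reached the appropriate level, the endpoint shown equals the highest concentration tested. Otherwise, values were interpolated linearly from a five-concentration, 48-hour dose response in 96-well plates. TGI denotes the concentration required for complete inhibition of growth.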

What was measured:
Test in all cases: NCI tumour cell line growth inhibition, 48 h
A549 NSCLC = test system: A549 NSCLC
HS 578T breast = test system: HS 578T breast
MDA-N = test system: MDA-N
NCI-H226 lung = test system: NCI-H226 lung
NCI-H23 lung = test system: NCI-H23 lung
SF-295 CNS = test system: SF-295 CNS
SF-539 CNS = test system: SF-539 CNS
SK-MEL-5 melanoma = test system: SK-MEL-5 melanoma
SK-OV-3 ovarian = test system: SK-OV-3 ovarian
SNB-75 CNS = test system: SNB-75 CNS

| SMILES | TGI (A549 NSCLC) | TGI (HS 578T breast) | TGI (MDA-N) | TGI (NCI-H226 lung) | TGI (NCI-H23 lung) | TGI (SF-295 CNS) | TGI (SF-539 CNS) | TGI (SK-MEL-5 melanoma) | TGI (SK-OV-3 ovarian) | TGI (SNB-75 CNS) |
| --- | --- | --- | --- | --- | --- | --- | --- | --- | --- | --- |
| CC(C)C1=C(O)C2=C(C(=O)C1=O)C1(C)CCCC(C)(C)C1C(O)C2OC=O (stereo not given) | 35.8 µM | 98.8 µM | 28.1 µM | 20.2 µM | 20.5 µM | 29.3 µM | 31.5 µM | 18.9 µM | 27.1 µM | 23.7 µM |
| CC1(C)OC2COC3([C@@H]4OC(C)(C)O[C@@H]4CO)OC(C)(C)OC3C2O1 (stereo not given in full) | > 100 µM |  | > 100 µM | > 100 µM | > 100 µM | > 100 µM | > 100 µM | > 100 µM |  | > 100 µM |
| Clc1nncc2sc(-c3ccccc3)nc12 | > 100 µM | 64.7 µM | 51.4 µM | > 82.4 µM | 52.9 µM | > 77.4 µM | 74.6 µM | 46.3 µM | 80.6 µM | > 64.1 µM |
| O=S1SC(=S)C2C=CC=CC21 (stereo not given) | > 100 µM | > 100 µM | > 100 µM | > 100 µM | > 100 µM | > 100 µM | > 100 µM | > 100 µM | > 100 µM | > 100 µM |
| O=C1CS(=O)(=O)C(c2cccc(Oc3ccccc3)c2)N1c1cc(Cl)ccc1Cl (stereo not given) | > 100 µM | > 100 µM | 35.1 µM | 41.5 µM | > 100 µM | 62.1 µM | 44.6 µM | 31.2 µM | 48.9 µM | 33.1 µM |
| CCN1C(=O)C(=C/C=C/c2ccc(N(CC)CC)cc2)C(=O)N(CC)C1=S | > 100 µM | > 100 µM | > 100 µM | > 100 µM | > 100 µM | > 100 µM | > 100 µM | > 100 µM | > 100 µM |  |
| COc1ccc(N2C(=O)C3c4[nH]c5ccccc5c4C4CCCCCCCCCC4C3C2=O)cc1 (stereo not given) | > 10 µM | > 10 µM | > 10 µM | > 10 µM | > 10 µM | > 10 µM | > 10 µM | > 10 µM | > 10 µM | > 10 µM |
| CON(C)C(=O)C1CCCO1 (stereo not given) | > 100 µM | > 100 µM | > 100 µM | > 100 µM | > 100 µM | > 100 µM | > 100 µM | > 100 µM | > 100 µM | > 100 µM |
| O=C1C=CC(=O)C(CNc2ccc(C(=O)OCc3ccccc3)cc2)=C1 | 32.1 µM | 55.4 µM | 19.5 µM | 28 µM | 30.1 µM | 34.5 µM | 7.29 µM | 11.6 µM | 30.8 µM | 18.4 µM |
| C=CC(=O)N1C/C(=C\c2ccc(Cl)cc2)C(=O)/C(=C/c2ccc(Cl)cc2)C1 | 1.64 µM | 1.36 µM | 0.515 µM | 3.03 µM | 2.15 µM | 0.917 µM | 0.419 µM | 5.11 µM | 1.71 µM | 1.64 µM |
| CCOC(=O)NC(Nc1c(F)c(F)c(F)c(F)c1F)(C(F)(F)F)C(F)(F)F | > 100 µM | > 100 µM | > 100 µM | > 100 µM | > 100 µM | > 100 µM | > 100 µM | > 100 µM | > 100 µM | > 100 µM |
| O=[N+]([O-])c1cccc2c(N=Nc3ccc4ccccc4c3O)c(O)cc(S(=O)(=O)O)c12 | > 100 µM | > 100 µM | > 100 µM | > 100 µM | > 100 µM | > 100 µM |  | > 100 µM | > 100 µM | > 100 µM |
| COC(=O)C1(O)C(c2ccccc2)=NC2(C)CCCC21 (stereo not given) | > 100 µM | > 100 µM | > 100 µM | > 100 µM | > 100 µM | > 100 µM |  | > 100 µM | > 100 µM | > 100 µM |
| COc1ccc(C2c3cc4c(cc3OC(NCCO)C2C)OCO4)cc1 (stereo not given) | 68.8 µM | 59.3 µM | 63.7 µM | 90.2 µM | > 100 µM | 89.1 µM | 40.5 µM | 44.7 µM | 87.6 µM | 69.5 µM |
| CC(=O)n1nc(-c2ccccc2)n(/N=C/c2ccc([N+](=O)[O-])o2)c1=O | 25 µM | 38 µM | 3.92 µM | > 19.8 µM | 14.3 µM | 47.9 µM | 18.4 µM | 14.8 µM | 40.2 µM | 26.8 µM |
| CCOP(=O)(OCC)OC1CC(n2cc(C)c(=O)n(C)c2=O)OC1CO[Si](C)(C)C(C)(C)C (stereo not given) | > 100 µM | > 100 µM | > 100 µM | > 100 µM | > 100 µM | > 100 µM | > 100 µM | > 100 µM | > 100 µM | > 100 µM |
| Cc1cc(C)nc(NS(=O)(=O)c2ccc(NC(=O)c3cccc4c(NNc5ccc(S(=O)(=O)N=C(N)N)cc5)c5ccccc5nc34)cc2)n1 | > 50 µM | > 50 µM | > 50 µM | > 50 µM | > 50 µM | > 50 µM | > 50 µM | > 50 µM | > 50 µM | > 50 µM |
| Cc1cc(O)c(-c2cc(O)c(C)cc2O)cc1O | 49.5 µM | > 72.2 µM | 22.9 µM | 46.4 µM | 38.9 µM | 31.2 µM | 9.35 µM | 28.4 µM | 30.5 µM | 29 µM |
| COc1ccc(Oc2cnn(C(Br)(Br)C(C)=O)c(=O)c2Br)cc1 | 60.7 µM | > 71.6 µM | 22.9 µM | 46.6 µM | 39 µM | 51.6 µM | 25.4 µM | 30 µM | > 64.3 µM | 29.4 µM |
| O=[N+]([O-])c1cc(Cl)ccc1Sc1ccccc1 | > 100 µM | > 100 µM | > 100 µM | > 100 µM | > 100 µM | > 100 µM | > 100 µM | > 100 µM | > 100 µM | 87 µM |
| CC1=NNC(=O)C1C1CC(c2c[nH]c3ccccc23)=NN=C1Cl (stereo not given) | > 100 µM | > 100 µM | > 100 µM | > 100 µM | > 100 µM | > 100 µM | > 100 µM | > 100 µM | > 100 µM | > 100 µM |
